Results taken from ChEMBL document CHEMBL5724696, “Autophagy assay results for EUbOPEN Chemogenomics Library” (2024).
Several values for one entry are separate records, joined by “and”; a condition that tells them apart may be missing. Equal entries are not always repeated.

What was measured:
Format in all cases: functional, Homo sapiens
U2OS [1] = assay: (§1) Here: values are normalized to the negative (DMSO; defined as 0% autophagy induction) and positive (250nM Torin1; mTOR inhibitor; defined as maximal inducer of autophagy = 100%) control compounds and represented as % of autophagy induction. […] The impact of autophagy induction on cells is complex and depends on the affected target. As such, the magnitude of a phenotype may not be equally mirrored in the %-value of autophagy induction and vice versa. The dynamics of the induction may indicate the mode of activation: e.g. activation via phosphorylation or a signaling cascade may occur fast, while activation via transcription factors may take considerably longer. […] Of note, treatment concentrations may be sub-optimal for specific compounds, leading to false negative annotations.; conditions: Culturing Media DMEM, 1 % Penicillin/Streptomycin, 10% Fetal bovin serum Add-On: No, Screening Media Control DMEM, Screening Media Samples DMEM
U2OS [2] = assay: as §1; conditions: Culturing Media DMEM, 1 % Penicillin/Streptomycin, 10% Fetal bovin serum Add-On: No, Screening Media Control DMEM, Screening Media Samples DMEM; remark: listed apart in the source
TERT-RPE1 = assay: as §1; conditions: Culturing Media DMEM/F12 (1:1), 1 % Penicillin/Streptomycin, 10% Fetal bovin serum Add-On: No, Screening Media Control DMEM/F12 (1:1), Screening Media Samples DMEM/F12 (1:1)
[3] = Compound Concentration 0.5 uM, Timepoint 12 hours
[4] = Compound Concentration 0.5 uM, Timepoint 24 hours
[5] = Compound Concentration 0.5 uM, Timepoint 36 hours
[6] = Compound Concentration 0.5 uM, Timepoint 60 hours
[7] = Compound Concentration 2 uM, Timepoint 12 hours
[8] = Compound Concentration 2 uM, Timepoint 24 hours
[9] = Compound Concentration 2 uM, Timepoint 36 hours
[10] = Compound Concentration 2 uM, Timepoint 60 hours
[11] = Compound Concentration 10 uM, Timepoint 12 hours
[12] = Compound Concentration 10 uM, Timepoint 24 hours
[13] = Compound Concentration 10 uM, Timepoint 36 hours
[14] = Compound Concentration 10 uM, Timepoint 60 hours
[15] = Compound Concentration 0.5 uM, Timepoint 12 hours, 12 h, 0.5 µM
[16] = Compound Concentration 0.5 uM, Timepoint 24 hours, 24 h, 0.5 µM
[17] = Compound Concentration 0.5 uM, Timepoint 36 hours, 36 h, 0.5 µM
[18] = Compound Concentration 0.5 uM, Timepoint 60 hours, 60 h, 0.5 µM
[19] = Compound Concentration 2 uM, Timepoint 24 hours, 24 h, 2 µM
[20] = Compound Concentration 2 uM, Timepoint 36 hours, 36 h, 2 µM
[21] = Compound Concentration 2 uM, Timepoint 60 hours, 60 h, 2 µM
[22] = Compound Concentration 10 uM, Timepoint 12 hours, 12 h, 10 µM
[23] = Compound Concentration 2 uM, Timepoint 12 hours, 12 h, 2 µM
[24] = Compound Concentration 10 uM, Timepoint 24 hours, 24 h, 10 µM
[25] = Compound Concentration 10 uM, Timepoint 36 hours, 36 h, 10 µM
[26] = Compound Concentration 10 uM, Timepoint 60 hours, 60 h, 10 µM

SMILES	autophagy induction (U2OS [1]; [3]) [%]	autophagy induction (U2OS [1]; [4]) [%]	autophagy induction (U2OS [1]; [5]) [%]	autophagy induction (U2OS [1]; [6]) [%]	autophagy induction (U2OS [1]; [7]) [%]	autophagy induction (U2OS [1]; [8]) [%]	autophagy induction (U2OS [1]; [9]) [%]	autophagy induction (U2OS [1]; [10]) [%]	autophagy induction (U2OS [1]; [11]) [%]	autophagy induction (U2OS [1]; [12]) [%]	autophagy induction (U2OS [1]; [13]) [%]	autophagy induction (U2OS [1]; [14]) [%]	autophagy induction (U2OS [2]; [3]) [%]	autophagy induction (U2OS [2]; [4]) [%]	autophagy induction (U2OS [2]; [5]) [%]	autophagy induction (U2OS [2]; [6]) [%]	autophagy induction (U2OS [2]; [7]) [%]	autophagy induction (U2OS [2]; [8]) [%]	autophagy induction (U2OS [2]; [9]) [%]	autophagy induction (U2OS [2]; [10]) [%]	also measured
CCCNS(=O)(=O)Nc1ncnc(OCCOc2ncc(Br)cn2)c1-c1ccc(Br)cc1	2.901	-2.846	0.07503	-9.912	12.0444	9.078	7.396	-1.934	26.4347	18.1089	17.8738	1.732	-3.964	-4.032	-61.3535	-1.132	-0.4685	-1.227	-59.7666	-0.5161	autophagy induction (U2OS [2]; [11]): 11.7925%; autophagy induction (U2OS [2]; [12]): 5.282%; autophagy induction (U2OS [2]; [13]): -57.2377%; autophagy induction (U2OS [2]; [14]): -0.5877%; autophagy induction (TERT-RPE1; [15]): -0.7197% and -7.3982%; autophagy induction (TERT-RPE1; [16]): 0.659% and -8.96%; autophagy induction (TERT-RPE1; [17]): -3.018% and -8.201%; autophagy induction (TERT-RPE1; [18]): -5.286% and -10.1731%; autophagy induction (TERT-RPE1; [19]): -0.7464% and 17.5664%; autophagy induction (TERT-RPE1; [20]): -1.802% and 12.9792%; autophagy induction (TERT-RPE1; [21]): -3.01% and 8.651%; autophagy induction (TERT-RPE1; [22]): -3.714% and 17.3261%
O=C(O)CC1CCC2(CC1)CCN(c1cc(OC(F)(F)F)ccc1Cl)CC2	-7.253	-0.0788	-0.8569	-4.709	-6.392	-5.775	-5.315	-3.59	-7.404	-7.084	-0.9405	-11.9422	6.893	1.231	-59.5433	-1.659	4.528	2.023	-58.8057	0.09301	autophagy induction (U2OS [2]; [11]): 1.476%; autophagy induction (U2OS [2]; [12]): -1.647%; autophagy induction (U2OS [2]; [13]): -59.8779%; autophagy induction (U2OS [2]; [14]): -1.029%; autophagy induction (TERT-RPE1; [15]): 1.5088% and -4.208%; autophagy induction (TERT-RPE1; [16]): -1.371% and -2.379%; autophagy induction (TERT-RPE1; [17]): -4.319% and -4.033%; autophagy induction (TERT-RPE1; [18]): -5.803% and -6.663%; autophagy induction (TERT-RPE1; [23]): 7.834% and -3.775%; autophagy induction (TERT-RPE1; [19]): 2.312% and -6.096%; autophagy induction (TERT-RPE1; [20]): -2.505% and -8.733%; autophagy induction (TERT-RPE1; [21]): -5.7463% and -9.633%; autophagy induction (TERT-RPE1; [22]): 5.943% and -1.866%; autophagy induction (TERT-RPE1; [24]): 5.6585% and -2.656%; autophagy induction (TERT-RPE1; [25]): 3.294% and -3.964%; autophagy induction (TERT-RPE1; [26]): -1.174% and -1.531%
COc1ccc(NS(=O)(=O)c2sc3ccc(Cl)cc3c2C)cc1N1CCNCC1.Cl	-11.3104	-5.358	-7.917	-7.314	6.008	2.399	-3.71	-14.5759	10.7956	3.064	-4.691	-6.499	2.987	-0.6318	-59.945	-1.761	6.036	-0.4148	-59.1656	-2.731	autophagy induction (U2OS [2]; [11]): 1.788%; autophagy induction (U2OS [2]; [12]): 0.7642%; autophagy induction (U2OS [2]; [13]): -61.0668%; autophagy induction (U2OS [2]; [14]): -6.058%; autophagy induction (TERT-RPE1; [15]): -2.268% and 1.364%; autophagy induction (TERT-RPE1; [16]): -0.6721% and -2.131%; autophagy induction (TERT-RPE1; [17]): -2.429% and -0.9432%; autophagy induction (TERT-RPE1; [18]): -2.224% and -1.994%; autophagy induction (TERT-RPE1; [23]): 1.355% and 0.7844%; autophagy induction (TERT-RPE1; [19]): 2.1639% and -0.4459%; autophagy induction (TERT-RPE1; [20]): 0.7328% and -1.399%; autophagy induction (TERT-RPE1; [21]): 3.483% and -0.5872%; autophagy induction (TERT-RPE1; [22]): 10.6024% and -4.741%; autophagy induction (TERT-RPE1; [24]): 10.2969% and -5.794%; autophagy induction (TERT-RPE1; [25]): 13.8741% and -5.163%; autophagy induction (TERT-RPE1; [26]): 16.669% and -5.902%
